Experimental data taken from US20240009359A1, “DRUG ELUTING ELASTIC BANDS AND LIGATION” (MEMORIAL SLOAN KETTERING CANCER CENTER, priority 2020, published 2024).
Entries after “also recorded” stand apart in the source; their conditions may differ.

What was measured:
[1] = Drug release from rubber bands in physiological medium; format: physicochemical; conditions: pH 7.9, 37 degrees Celsius; for Drug release from rubber band: released drug measured over time
Description: To see whether the lidocaine loaded within the rubber is dispersed evenly, a larger lidocaine loaded rubber slab was prepared and cut into pieces from either the middle or the edges of the slab. The amount of drug released was measured (see FIG. 9K) and normalized to the amount of rubber (see FIG. 9L).

[2] = system: HL-1 cardiomyocytes; assay: Calcium imaging of HL-1 cardiomyocytes exposed to lidocaine released from rubber bands; format: cell-based; conditions: HL-1 cardiomyocytes before and after exposure to released lidocaine
Description: In accordance with various potential embodiments, and with reference to FIGS. 11A-11C, the released lidocaine was tested on cardiomyocytes. Lidocaine is known to have a cardiotoxic effect in high concentrations, and accordingly, HL-1 cardiomyocytes beating on a plate were imaged using calcium imaging before and after exposure to the released lidocaine (FIG. 11A).

[3] = system: MCF-7 cells; assay: Activity of salicylic acid released from rubber on MCF-7 cell viability; format: cell-based; conditions: drug loaded in rubber and released into the media in presence of MCF-7 cells
Text: In order to verify that the released drugs are still active after elution from the rubber, salicylic acid was loaded and released into the media in the presence of MCF-7 cells.

CCCCN1CCCCC1C(=O)Nc1c(C)cccc1C (centres unmarked) [bupivacaine]
Drug release from rubber band [1]: released

Cc1cc(C2CCCCC2)n(O)c(=O)c1 [ciclopirox olamine]
Drug release from rubber band [1]: released

CN(C)CCOC(c1ccccc1)c1ccccc1.Cn1c(=O)c2[nH]c(Cl)nc2n(C)c1=O [dimenhydrinate]
Drug release from rubber band [1]: released

COC1=CC(=O)C[C@@H](C)[C@]12Oc1c(Cl)c(OC)cc(OC)c1C2=O [griseofulvin]
Drug release from rubber band [1]: released

CCN(CC)CC(=O)Nc1c(C)cccc1C [lidocaine]
Calcium activity (calcium waves, fluorescence pattern) [2]: inhibit spontaneous calcium waves; also recorded: much lower level of calcium activity
Rate of contraction [2]: rate of contraction dropped
Time at which release peaked ([1]; different loading quantities): ~5 days

CN1C(C(=O)Nc2ccccn2)=C(O)c2ccccc2S1(=O)=O [piroxicam]
Drug release from rubber band [1]: released

O=C(O)c1ccccc1O [salicylic acid]
Cell viability compared to untreated cells [3]: effective in reducing cell viability
Drug release from rubber band [1]: released

OB1OCc2cc(F)ccc21 [tavabarole]
Drug release from rubber band [1]: released
